According to ChEMBL document CHEMBL4130620, “Disconnecting the Estrogen Receptor Binding Properties and Antimicrobial Properties of Parabens through 3,5-Substitution” (ACS Med Chem Lett, 2018):
Values after ≈ are worked out from the molar mass of the structure shown.

Tests used:
MCF7 [1] = assay type: toxicity, cell-based; conditions: human
MCF7 [2] = assay type: toxicity, cell-based; conditions: human; remark: listed apart in the source
[3] = molecular target: T1, Estrogen receptor alpha (ERalpha) (Homo sapiens, UniProt P03372); assay: Safety index, ratio of IC50 for test compound to IC50 for paraben for displacement of Fluor.ES2 Green from human ERalpha by TR-FRET competitive binding assay; conditions: probe Fluor.ES2 Green, read-out: Ratio IC50
T1 sequence (P03372 whole entry): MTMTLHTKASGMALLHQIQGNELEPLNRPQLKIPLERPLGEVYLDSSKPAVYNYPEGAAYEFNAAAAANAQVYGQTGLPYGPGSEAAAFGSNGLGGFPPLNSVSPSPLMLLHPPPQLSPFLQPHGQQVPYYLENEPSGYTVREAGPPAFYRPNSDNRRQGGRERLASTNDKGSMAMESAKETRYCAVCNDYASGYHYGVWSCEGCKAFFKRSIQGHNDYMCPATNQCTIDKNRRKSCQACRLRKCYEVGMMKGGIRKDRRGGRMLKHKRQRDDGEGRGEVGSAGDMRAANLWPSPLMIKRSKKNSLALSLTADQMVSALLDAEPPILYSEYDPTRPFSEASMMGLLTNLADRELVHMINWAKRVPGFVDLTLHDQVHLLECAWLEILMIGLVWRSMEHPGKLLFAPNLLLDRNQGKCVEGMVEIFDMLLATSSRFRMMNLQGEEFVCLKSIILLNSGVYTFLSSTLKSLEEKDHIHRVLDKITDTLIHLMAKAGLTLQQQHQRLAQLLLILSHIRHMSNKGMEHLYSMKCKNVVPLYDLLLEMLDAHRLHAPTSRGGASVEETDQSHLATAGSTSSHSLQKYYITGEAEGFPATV

Staphylococcus aureus = assay: microbe, parasite or virus in culture; conditions: 155554A, 16 h
Description: Antibacterial activity against Staphylococcus aureus 155554A incubated for 16 hrs by microdilution assay

MCF7 [4] = assay type: ADME, cell-based; conditions: human, mcf7, 24 h
Estrogen receptor = molecular target: T2, Estrogen receptor (Homo sapiens, UniProt P03372)
T2 sequence (P03372 whole entry): T1 sequence (P03372 whole entry)
Description: Displacement of Fluor.ES2 Green from human ERalpha by TR-FRET competitive binding assay

[5] = Solubility of the compound at >512 ug/ml; assay type: physicochemical
[6] = molecular target: T1, Estrogen receptor alpha (ERalpha); assay: Displacement of Fluor.ES2 Green from human ERalpha at 100000 nM by TR-FRET competitive binding assay; conditions: probe Fluor.ES2 Green

Row | SMILES | Activity (MCF7 [1]) | Activity (MCF7 [2]) | selectivity ratio [3] | MIC (Staphylococcus aureus) [µM] | Activity (MCF7 [4]) | IC50 (Estrogen receptor) [µM] | solubility [5] | inhibition at 100 µM [6] [%]
1 | CCCCOC(=O)c1cc(Br)c(O)c(Br)c1 | Non-Toxic | Non-Toxic | 20 to 40 | 91 (≈ 32 µg/mL) | Non-Toxic | 39.4 | – | –
2 | CCCCOC(=O)c1cc(OC)c(O)c(OC)c1 | – | – | 20 to 40 | 924 (≈ 235 µg/mL) | Non-Toxic | > 200 | Insoluble | 20
3 | CCCCOC(=O)c1cc([N+](=O)[O-])c(O)c([N+](=O)[O-])c1 | – | – | 20 to 40 | 1810 (≈ 514 µg/mL) | Non-Toxic | > 200 | – | 20
4 | CCCCOC(=O)c1c(F)c(F)c(O)c(F)c1F | – | – | 20 to 40 | 483 (≈ 129 µg/mL) | Non-Toxic | 29.4 | – | –
5 | CCCCOC(=O)c1cc(C(C)(C)C)c(O)c(C(C)(C)C)c1 | – | – | 20 to 40 | 834 (≈ 256 µg/mL) | Non-Toxic | > 200 | Insoluble | 20
6 | CCCCCCCCOC(=O)c1cc(C)c(O)c(C)c1 | – | – | 20 to 40 | 213 (≈ 59.3 µg/mL) | Non-Toxic | 16.2 | – | –
7 | CCCCOC(=O)c1ccc(O)c(I)c1 | – | – | – | 199 (≈ 63.7 µg/mL) | Non-Toxic | 7.98 | – | –
8 | CCCCCCCCOC(=O)c1cc([N+](=O)[O-])c(O)c([N+](=O)[O-])c1 | Non-Toxic | Non-Toxic | 20 to 40 | 47 (≈ 16 µg/mL) | Non-Toxic | 60.4 | – | –
9 | CCCCCCCCOC(=O)c1cc(I)c(O)c(I)c1 | Non-Toxic | Non-Toxic | 20 to 40 | 31.8 (≈ 16 µg/mL) | Non-Toxic | 13.2 | – | –
10 | CCCCOC(=O)c1ccc(O)c(Br)c1 | – | – | – | 236 (≈ 64.5 µg/mL) | Non-Toxic | 8.21 | – | –
11 | CCCCOC(=O)c1cc(C)c(O)c(C)c1 | – | – | 20 to 40 | > 1040 | Non-Toxic | 32.5 | Insoluble | –
12 | CCCCOC(=O)c1cc(Cl)c(O)c(Cl)c1 | – | – | 20 to 40 | 245 (≈ 64.5 µg/mL) | Non-Toxic | 55.3 | – | –
13 | CCCCOC(=O)c1cc(I)c(O)c(I)c1 | Non-Toxic | Non-Toxic | 20 to 40 | 36 (≈ 16.1 µg/mL) | Non-Toxic | 34.6 | – | –
14 | CCCCOC(=O)c1cc(O)c(O)c(O)c1 [BUTYL GALLATE] | – | – | – | 2060 (≈ 465 µg/mL) | Non-Toxic | 8.97 | – | –
15 | CCCCOC(=O)c1ccc(O)cc1 [BUTYLPARABEN] | – | – | – | 1320 (≈ 256 µg/mL) | Toxic | – | – | –
16 | CCOC(=O)c1ccc(O)cc1 [ETHYLPARABEN] | – | – | – | – | Toxic | – | – | –
17 | CCCCCCCCOC(=O)c1cc(O)c(O)c(O)c1 [OCTYL_GALLATE] | – | – | 20 to 40 | 210 (≈ 59.3 µg/mL) | Non-Toxic | 8.74 | – | –
18 | CC1(C)S[C@@H]2[C@H](NC(=O)Cc3ccccc3)C(=O)N2[C@H]1C(=O)O [PENICILLIN G] | – | – | – | 0.749 (≈ 0.25 µg/mL) | – | – | – | –
